We go through six molecules from article PMC3591448, “Profile of the GSK Published Protein Kinase Inhibitor Set Across ATP-Dependent and-Independent Luciferases: Implications for Reporter-Gene Assays” (PLoS ONE, 2013).

Read-outs that look alike come from different tables or passages of the source.

One assay concerns RHO. Also on record: method as in Stavenger, R. A., et al. 2007. Conditions: ref Stavenger, R. A., et al. 2007; read-out: PKI IC50 (µM), RHO; cited from earlier work.
Assay [1] has as its target T1, Renilla luciferase (RLuc) (Renilla reniformis, UniProt P27652).
T1 sequence (P27652 1-311): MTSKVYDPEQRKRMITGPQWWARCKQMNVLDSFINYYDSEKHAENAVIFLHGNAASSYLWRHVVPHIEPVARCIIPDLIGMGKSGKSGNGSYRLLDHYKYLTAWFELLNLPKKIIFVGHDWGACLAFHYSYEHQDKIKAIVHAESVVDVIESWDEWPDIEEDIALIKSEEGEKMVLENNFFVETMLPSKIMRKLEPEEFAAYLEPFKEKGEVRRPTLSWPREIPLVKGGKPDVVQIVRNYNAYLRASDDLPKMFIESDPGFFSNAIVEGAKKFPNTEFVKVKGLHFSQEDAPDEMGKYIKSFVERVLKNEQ
The assay can be described thus: RLuc enzymatic assay (purified enzyme, qHTS, 1536-well). Particulars: 1 nM RLuc, 5 µM coelenterazine-H. The class given is biochemical. As for the experimental part:
1 µL of purified luciferase was then dispensed into each well for final concentrations 10 nM FLuc or 1 nM RLuc. The bioluminescence outputs were measured by an EnVision reader (PerkinElmer, Wellesley, MA). Due to the relatively short luminescence duration of the RLuc assay, dispense time constants were set to match closely to the read time of the plate reader. As a result, each individual well was read with approximately the same time delay from reagent dispense to signal acquisition. See Table 1 for the 1536-well assay protocols.
(§1) Data from each assay was normalized plate-wise to corresponding intraplate controls as described previously, [17]. The same control data sets were also used for the calculation of Z′ factors from each assay. In all assays, wells containing DMSO were used as no-response controls. For the FLuc enzymatic assay, each compound-treated well on the plate was normalized to the average readings of n = 24 PTC124 treated wells and n = 48 DMSO wells from the same plate. Wells were scaled to a full range of DMSO and zero, and then normalized using the maximum response observed in the screen as 100% activity. For the RLuc enzymatic assay, n = 24 BTS treated wells for the positive control, n = 48 DMSO. MSR values were calculated using the cumulative potency differences of the de-interleaved duplicate control titrations from each plate as previously described. The normalized data from each assay plate set was corrected using DMSO-only treated assay plates read at the start and end of each assay run, and the resulting inter-plate titration data fit, using in-house software, to the standard Hill equation and dose-response curves automatically classified as described previously.
(§2) The curve classification scheme for assignment of resulting curve-fit data into CRC classes was according to Inglese et al. as follows: class 1 curves (far left) display two asymptotes, an inflection point, and r^2≥0.9; subclasses 1a vs. 1b are differentiated by full (>80%) vs. partial (≤80%) response. Class 2 curves (second from left) display a single left-hand asymptote and inflection point; subclasses 2a (or 2.1) and 2b (2.2) are differentiated by a max response and r^2, >80% and >0.9 or <80% and <0.9, respectively. Class 3 curves (second from right) have a single left-hand asymptote, no inflection point, and a response >3SD from the mean activity of the sample field.
On the technique in general: In qHTS, concentration-response curves come from the screen itself.

The target in assay [2] is firefly luciferase, Photinus pyralis (FLuc) (Photinus pyralis, UniProt P08659). The assay is described as follows: biochemical. The format is biochemical. Conditions: for FLuc Parameters Hill Coef: Hill equation fit of CRC; for Emax: response relative to PTC124 control inhibitor, negative = inhibition, read-out: FLuc Parameters Efficacy. As for the experimental part: The bioluminescence outputs were measured by an EnVision reader (PerkinElmer, Wellesley, MA). Due to the relatively short luminescence duration of the RLuc assay, dispense time constants were set to match closely to the read time of the plate reader. As a result, each individual well was read with approximately the same time delay from reagent dispense to signal acquisition. See Table 1 for the 1536-well assay protocols.
as §1, §2

For another assay, the system named is CDK2. Particulars: ref Bramson, H. N., et al., 2001; read-out: PKI IC50 (µM), CDK2; cited from earlier work.
The test system of another assay is VEGFR2. Conditions: ref Harris, P.A., et al. 2005; read-out: PKI IC50 (µM), VEGFR2; cited from earlier work.
The subject of another assay is CDK. Also noted: method as in Stevens, K. L., et al. 2008. Particulars: ref Stevens, K. L., et al. 2008; read-out: PKI IC50 (µM), CDK; cited from earlier work.
The subject of another assay is p38. Also noted: method as in Angell, R.M., et al. 2008. Conditions: ref Angell, R.M., et al. 2008; read-out: PKI IC50 (µM), p38; cited from earlier work.
Another assay has as its system VEGFR. Also on record: method as in Sammond, D.M., et al. 2005. Conditions: ref Sammond, D.M., et al. 2005; read-out: PKI IC50 (µM), VEGFR; cited from earlier work.
Where [3] appears, read: 10 nM FLuc, 10 µM D-luciferin, 10 µM ATP, read-out: FLuc Parameters IC50.
The mark [4] stands for this setting: Figure 4b, read-out: FLuc (IC50).

Chain of firefly luciferase, Photinus pyralis (FLuc) (P08659 whole entry): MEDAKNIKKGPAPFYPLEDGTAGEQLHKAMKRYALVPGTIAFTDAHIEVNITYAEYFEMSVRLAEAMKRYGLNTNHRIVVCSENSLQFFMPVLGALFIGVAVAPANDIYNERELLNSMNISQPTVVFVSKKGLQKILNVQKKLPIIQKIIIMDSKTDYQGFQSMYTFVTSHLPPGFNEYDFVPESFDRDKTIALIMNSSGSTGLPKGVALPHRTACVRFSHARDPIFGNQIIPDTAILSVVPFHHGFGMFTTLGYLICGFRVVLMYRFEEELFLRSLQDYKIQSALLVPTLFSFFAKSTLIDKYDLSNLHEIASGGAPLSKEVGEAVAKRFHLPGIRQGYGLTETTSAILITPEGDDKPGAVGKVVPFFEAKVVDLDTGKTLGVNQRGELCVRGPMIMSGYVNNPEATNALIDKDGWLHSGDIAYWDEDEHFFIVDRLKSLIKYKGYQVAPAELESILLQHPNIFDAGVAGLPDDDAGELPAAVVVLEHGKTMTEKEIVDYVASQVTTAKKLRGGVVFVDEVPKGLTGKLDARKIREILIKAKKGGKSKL

`CCn1c(-c2nonc2N)nc2cnc(Oc3cccc(NC(=O)c4ccc(N(C)C)cc4)c3)cc21` [GSK248233A]: the 50% inhibitory concentration (IC50) in the assay on RHO was 0.002 µM; in assay [2] (setting [3]), 1030 nM; in assay [2] (setting [4]) it was 1000 nM; in assay [2] (Table 3, read-out: FLuc IC50), 1030 nM. Moreover, the “RLuc Curve Class” value in assay [1] worked out at 4. Also, the “FLuc Parameters Hill Coef” value in assay [2] was found to be 0.9. Besides, the Emax in assay [2] was 98.9%.

On to `C/C(Nc1ccc(S(N)(=O)=O)cc1)=C1/C(=O)Nc2ccccc21` [GW335962X], for which the IC50 in the assay with CDK2 is 0.36 µM; in assay [2] (setting [3]), 3660 nM; in assay [2] (Table 3, read-out: FLuc IC50) it was 3660 nM. Further, the “RLuc Curve Class” value in assay [1] was determined as 4. Besides, the “FLuc Parameters Hill Coef” value in assay [2] is 1.51. The Emax in assay [2] is 68.8%.

As to `COc1ccccc1Nc1ncc(-c2ccccc2)o1` [GW577921A], the 50% inhibitory concentration (IC50) was 0.38 µM with VEGFR2; 1030 nM in assay [2] (setting [3]); 1030 nM in assay [2] (Table 3, read-out: FLuc IC50). The “RLuc Curve Class” value in assay [1] is 4. The “FLuc Parameters Hill Coef” value in assay [2] is listed as 1. Further, the Emax in assay [2] was determined as 102%.

For the molecule `c1cc(-c2cnn3nc(N4CCOCC4)ccc23)nc(NC2CC2)n1` [GW708336X], the IC50 with CDK is 0.4 µM; in assay [2] (setting [3]), 4610 nM; in assay [2] (Figure 2b, representative structures of clusters, read-out: FLuc IC50), 5000 nM; in assay [2] (Table 3, read-out: FLuc IC50), 4610 nM. The “RLuc Curve Class” value in assay [1] was 4. Moreover, the “FLuc Parameters Hill Coef” value in assay [2] was 1. For the same molecule, in assay [2], the Emax amounted to 108%.

In the case of `O=C(NCC1CC1)c1ccc(-c2cccc(C(=O)NC3CC3)c2)cc1` [GW806776X], the IC50 in assay [2] (setting [3]) was 9190 nM; in assay [2] (Table 3, read-out: FLuc IC50), 9190 nM; with p38, 0.075 µM. The “FLuc Parameters Hill Coef” value in assay [2] is 1.51. Also, the Emax in assay [2] was 35.2%.

For the molecule `CN(c1ccc(NC(=O)Nc2c(Cl)cccc2Cl)cc1)c1ccnc(Nc2cccc(CS(C)(=O)=O)c2)n1` [GW809897X], the “RLuc Curve Class” value in assay [1] is given as 4. The IC50 is 0.065 µM in the assay with VEGFR; 580 nM in assay [2] (setting [3]); 560 nM in assay [2] (setting [4]); 580 nM in assay [2] (Table 3, read-out: FLuc IC50). For the same molecule, the “FLuc Parameters Hill Coef” value in assay [2] is 1.11. Also, in assay [2], the Emax came out at 109%.

The IC50 is the concentration needed to halve the response being measured.
